Experimental data as given in US12090221B2, “Composition for preventing gray hair, promoting black hair and preventing, improving or treating vitiligo or hypochromatism comprising fructose 1,6-bisphosphate or salt, solvate, stereoisomer or hydrate thereof as active ingredient” (AMOREPACIFIC CORPORATION, priority 2021, dated 2024).

How the values were obtained:
[1] = test system: human hair follicles; assay: Effect of preventing gray hair and promoting black hair in cultured human hair follicles damaged with hydrogen peroxide (Fontana-Masson staining of melanin); assay type: cell-based; conditions: 100 ppm together with 1000 μM hydrogen peroxide, cultured for 3 days, FIG. 3
Method: Occipital scalp tissue was obtained from a person who received hair follicle transplantation surgery due to hair loss. Hair follicle samples were isolated from the obtained occipital scalp tissue using a microscope. A total of 15 hair follicle samples were prepared for 3 groups, with 5 samples per each group. The hair follicle samples were cultured on a 24-well plate (Nunc, Wiesbaden, Germany) containing 500 μL of a culture medium, with 5 samples per well. As the culture medium, William's E medium (GIBCO, NY, USA) containing 2 mM L-glutamine (PAA, Coelbe, Germany), 10 μg/mL insulin, 10 ng/mL hydrocortisone (Sigma, St Louis, Mo.), 0.1% Fungizone (GIBCO, NY, USA), 10 μg/mL streptomycin and 100 U/mL penicillin (GIBCO, NY, USA) was used. After simultaneously treating with hydrogen peroxide and a fructose 1,6-bisphosphate trisodium salt (FBP-Na3H) at 1000 μM and 100 ppm, respectively, the samples were cultured for 3 days. For comparison, control groups were treated with 1000 μM hydrogen peroxide (H2O2) only or with neither hydrogen peroxide nor the fructose 1,6-bisphosphate trisodium salt. After the treatment, the sample was fixed with formalin, washed with water, dehydrated with alcohol and xylene, and then embedded in paraffin according to a common tissue-processing procedure. […]

[2] = test system: Normal human epidermal melanocytes; assay: Melanin synthesis-promoting effect in normal human melanocytes (absorbance at 475 nm of NaOH lysate); assay type: cell-based; conditions: cultured for 6 days, relative to untreated group as 100%
Method: Normal human epidermal melanocytes (GIBCO™, ThermoFisher Scientific, USA) were treated with fructose 1,6-bisphosphate at 0 (untreated group), 0.1, 1, 10 or 100 ppm and then cultured for 6 days. After the culturing, the cells were lysed with 1 N NaOH and absorbance was measured at 475 nm. Relative melanin production was represented with respective to the absorbance of the untreated group not treated with fructose 1,6-bisphosphate as 100%. A higher absorbance means a higher melanin content.

Structure (SMILES)	Melanin production in human hair follicles (Fontana-Masson staining) [1]	Prevention of decreased melanin production in hair bulbs due to hydrogen peroxide damage (Fontana-Masson staining) ([1]; compared with H2O2 only)	Relative melanin production (effect of promoting melanin production in melanocytes) ([2]; 0.1, 1, 10 or 100 ppm, FIG. 1 and FIG. 2)	Relative melanin production (effect of promoting melanin production in melanocytes) ([2]; 100 ppm treatment group)
O=C(COP(=O)([O-])[O-])[C@@H](O)[C@H](O)[C@H](O)COP(=O)([O-])O.[Na+].[Na+].[Na+] [fructose 1,6-bisphosphate trisodium salt]	promoting melanin production in human hair follicles	preventing decreased melanin production in hair bulbs due to damage caused by hydrogen peroxide		
O=C(COP(=O)(O)O)[C@@H](O)[C@H](O)[C@H](O)COP(=O)(O)O [fructose 1,6-bisphosphate]			exhibits the effect of promoting melanin production in melanocytes	significantly high
